Measured values published in patent publication US20210161915A1, “GABA-A ANTAGONISTS FOR TREATING SUBSTANCE […]” (ASARINA PHARMA APS, priority 2018, published 2021).

Legend:
female Wistar rats = test: Resident/intruder (R/I) test of estrus cycle-dependent tolerance/withdrawal symptoms; format: in vivo, rat; conditions: 1.5 mg/kg s.c. daily
Protocol: Experimental set-up: Experiments were carried out in female cycling rats. Rats have steroid variations related to ovulation similar to humans. […] The symptoms are related to the excitability changes in the brain that precedes withdrawal symptoms. Symptoms like migraine attacks and epileptic seizure(s) will arrive after a period of tolerance (Reddy & Rogawski 2009; Slawecki et al 2000, Welch K M. 2005). Symptoms in rats were investigated using a resident/intruder (R/I) test with behavioral analysis at the diestrus and the estrus phases of the estrus cycle (FIG. 3). The symptoms referred to in this Example are behavioral symptoms of withdrawal.
The frequency of behavioral symptom expression at diestrus and estrus during treatment were compared to the same behavior expression prior to treatment. The intruder rats were ovariectomized animals of the same age and size as the residents.
Animals: In total, 42 female Wistar rats (Taconics, Lille Skensved, Denmark) were used. At arrival the animals were approximately 9 weeks old and weighed 185-209 g. For identification, the rats were marked on their tails with permanent ink (PorciMark™). The animals were housed in triads at the animal facility where all experiments took place (Umea University, Umea, Sweden). A reversed light/dark cycle was used (12 h/12 h light/dark; lights off at 04:00). Food (standard chow) and water was available ad libitum. The rats were handled daily for two weeks prior to the start of testing. Nine rats were randomly selected as intruder rats and were ovariectomized. The remaining intact rats were tested for estrus cycle-dependent symptomatic behavior. The study protocol was approved by the Regional Ethics Committee of Umea, Sweden. All animal handling and experiments were performed according to Swedish legislation.
Ovariectomy of the intruder rats: Ovariectomy of the intruder rats was carried out by ligation of uterine tubes and removal of ovaries under anesthesia with 2.3% Isoflurane (Baxter Medical AB, Kista, Sweden) in oxygen (O2 flow rate 0.32 L/min). The surgical suture techniques included the use of surgical glue (Vetbond Tissue Adhesive No 1469 3M) in addition to sutures. Pain relief (Rimadyl Vet, 0.25 mg/100 g) was given daily for one week post-surgery.
Determination of estrus cycle phase: Estrus cycle phase (proestrus, estrus, metestrus and diestrus) of the rats was determined by microscope examination of vaginal smears. The smears were collected daily between 08:00 and 10:00, using a glass pipette with 50-70 μL normal saline (NaCl 0.9%), and stained with 0.2% toluidine blue. However, on the day of R/I test, the vaginal smear of a tested animal was collected immediately after the encounter. In addition, during the 3beta-hydroxy-5alpha-pregnan-20-one treatment, the smears were collected directly in the morning before injections to confirm expected estrus cycle phase. Diestrus (including metestrus) is characterized by the presence of leucocytes in smears. Both nucleated epithelial cells and cornified epithelial cells are present at diestrus but more abundantly at metestrus than at late diestrus. Estrus (including proestrus) is characterized by thick smears free from leucocytes but with abundant presence of nucleated epithelial cells (predominant in proestrus) and cornified epithelial cell (predominant at estrus). Further details are provided in Hubscher et al., 2005. […]

[1] = intended doses; cited from earlier work
[2] = molecular target: T1, human alpha1,beta2,gamma2 Long GABAA receptor subtype (Homo sapiens, UniProt P14867+P47870); test: Patch-clamp (Dynaflow system) current response in HEK-293 cells transfected with alpha1,beta2,gamma2 Long GABAA receptor; format: cell-based
T1 construct: expressed in transfected cells; host or cells: HEK-293
Protocol: (§1) In these tests the protocol was optimized to be similar to the physiological conditions in the synaptic cleft.
(§2) Cell culture: HEK-293 cells, permanently transfected with the human alpha1,beta,gamma and alpha4,beta,delta GABAA receptor subtypes, were seeded at a density of 3×10^4/25 cm^2 in a culture flask. The transfected cells were used for patch-clamp experiments 3 days after seeding. When using the cells for patch-clamp experiments the cells were washed twice with oxygen-bubbled extra cellular (EC) solution (see below). About 5 mL EC was then added and the cells were kept in the incubator for about 15 minutes. After 15 minutes the cells came loose from the bottom of the flask and were separated by carefully sucking a couple of times with a Pasteur pipette.
(§3) Dynaflow™ system with Resolve chip was used for patch-clamp experiments: The electrophysiological recordings from HEK-293 cells were performed under voltage-clamp conditions using patch-clamp technique and the Dynaflow™ system (Dynaflow Pro II Platform Zeiss Axiovert 25; Cellectricon AB, Sweden) with Resolve chips as application system.
(§4) Patch pipettes were pulled from borosilicate glass and polished to a resistance 2-5 MΩ when filled with suitable intracellular solution (IC) (pH was adjusted to 7.2) and immersed in bath solution (extracellular, EC) (pH is adjusted to 7.4).
(§5) The recordings were made using an Axopatch 200B amplifier, a Digidata 1322A (Axon instruments, Foster city, USA). Data were analysed using the pCLAMP software sampled at 10 kHz, filtered at 2-10 kHz and analyzed with Clampfit (versions 9.0, both from Axon instruments, Foster city, USA). No higher series resistance than 20 MΩ between pipette and cell membrane was accepted. No series resistance compensation was used. The stability of series resistance was monitored repeatedly from the time course of capacitative transients during the experiments. The measured liquid-junction potential between EC and IC was subtracted in all data presented. All experiments were performed at room temperature (21-23° C.).
(§6) All steroids were dissolved to the concentration of 6 mM in DMSO. […] End solutions were the solutions added into the wells of the chip.
(§7) Electrophysiology: After compensating for the liquid junction potential a steady holding potential of −17 mV was used in all experiments. […] By using the holding potential of −17 mV and the intracellular solution with low chloride ion concentration the chloride ions flux into the cell when the receptors were activated.
The Dynaflow system allowed application of solutions for as short as 40 ms up to minutes in time.
In the experiments, THDOC and 3alpha-OH-adiol were used as the positive GABAA receptor modulating steroids.
(§8) Different incubation times were studied to achieve the optimal time for attaining stable results and minimize the washout time.
Study design: Studies were conducted on current response mediated by chloride ion flux through the GABAA receptor. […] The same patch-clamp technique was used as described above (Example 1) using the Dynaflow™ application system. THDOC was used as positive GABAA receptor modulating steroid as it has shorter washout time compared to allopregnanolone but works with the same mechanisms on the same GABAA receptor binding site as allopregnanolone.
HEK-293 cells, permanently transfected with cDNA expressing the human alpha1,beta2,gamma2 Long GABAA receptor subtype. The tissue culture and the handling of the cells were as described in Example 1. In the patch-clamp experiments the transfected cells were used minimum two passages after defrosting and 3 days after seeding. The cells were seeded for maximal 25 times.

[3] = molecular target: T2, human alpha4,beta,delta GABAA receptor subtype (Homo sapiens, UniProt P28472+P48169); test: Patch-clamp (Dynaflow system) current response in HEK-293 cells transfected with alpha4,beta3,delta GABAA receptor; format: cell-based
T2 construct: expressed in transfected cells; host or cells: HEK-293
Protocol: as §1, §2, §3, §4, §5, §6, §7
The Dynaflow system allowed application of solutions for as short as 40 ms up to minutes in time. […] There was no difference in response between the second and the third GABA application. Therefore, the first GABA application was always repeated twice and the second response was used in the analysis.
Washout: GABA is quite soluble in water and easy to washout from the receptor. […] Steroids on the other hand were difficult to dissolve in water and also difficult to washout from the receptor. In the experiments, THDOC and 3alpha-OH-adiol were used as the positive GABAA receptor modulating steroids. With 2 minutes washout time, 200 nM THDOC and 3alpha-OH-adiol was completely washed out as shown by neither an accumulative nor a desensitization effect.
as §8

T2 sequence (P48169 36-554): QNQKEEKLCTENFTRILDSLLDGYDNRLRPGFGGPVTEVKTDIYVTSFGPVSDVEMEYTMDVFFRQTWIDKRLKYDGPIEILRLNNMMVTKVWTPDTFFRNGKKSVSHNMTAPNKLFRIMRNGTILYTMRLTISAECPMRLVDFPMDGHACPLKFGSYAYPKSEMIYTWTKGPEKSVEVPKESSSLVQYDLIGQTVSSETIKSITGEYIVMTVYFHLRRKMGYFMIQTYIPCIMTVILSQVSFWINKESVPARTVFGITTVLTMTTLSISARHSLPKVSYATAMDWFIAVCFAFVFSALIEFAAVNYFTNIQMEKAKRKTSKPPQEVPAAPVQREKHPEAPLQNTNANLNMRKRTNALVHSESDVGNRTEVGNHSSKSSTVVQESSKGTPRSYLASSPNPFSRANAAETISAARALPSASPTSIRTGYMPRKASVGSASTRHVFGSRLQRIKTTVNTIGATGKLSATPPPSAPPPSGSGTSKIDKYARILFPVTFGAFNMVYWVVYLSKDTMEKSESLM
T2 sequence (P28472 26-473): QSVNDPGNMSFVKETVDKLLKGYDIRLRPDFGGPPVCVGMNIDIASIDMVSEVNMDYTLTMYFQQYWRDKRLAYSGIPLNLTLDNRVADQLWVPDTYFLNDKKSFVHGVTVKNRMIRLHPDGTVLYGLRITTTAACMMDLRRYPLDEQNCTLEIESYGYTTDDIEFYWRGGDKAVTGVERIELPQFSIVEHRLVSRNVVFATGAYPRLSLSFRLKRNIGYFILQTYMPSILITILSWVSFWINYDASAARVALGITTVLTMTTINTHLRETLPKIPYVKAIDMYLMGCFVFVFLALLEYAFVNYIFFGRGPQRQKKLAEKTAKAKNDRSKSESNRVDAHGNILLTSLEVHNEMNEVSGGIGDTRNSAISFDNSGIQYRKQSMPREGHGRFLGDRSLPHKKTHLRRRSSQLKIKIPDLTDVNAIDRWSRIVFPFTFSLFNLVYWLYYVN
T2 sequence (O14764 17-452 partner limits assumed): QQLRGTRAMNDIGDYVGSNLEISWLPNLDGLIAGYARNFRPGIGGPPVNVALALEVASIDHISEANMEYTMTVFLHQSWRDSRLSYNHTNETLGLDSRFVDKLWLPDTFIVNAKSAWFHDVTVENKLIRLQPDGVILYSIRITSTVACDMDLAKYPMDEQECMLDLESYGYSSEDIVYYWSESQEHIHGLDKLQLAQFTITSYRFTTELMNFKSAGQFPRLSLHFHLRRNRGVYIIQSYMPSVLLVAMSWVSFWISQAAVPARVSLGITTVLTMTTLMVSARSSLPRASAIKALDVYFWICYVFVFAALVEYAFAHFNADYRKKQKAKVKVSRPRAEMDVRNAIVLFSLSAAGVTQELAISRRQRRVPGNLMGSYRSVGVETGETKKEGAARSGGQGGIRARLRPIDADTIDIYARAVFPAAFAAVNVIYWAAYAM
T1 sequence (P14867 28-456): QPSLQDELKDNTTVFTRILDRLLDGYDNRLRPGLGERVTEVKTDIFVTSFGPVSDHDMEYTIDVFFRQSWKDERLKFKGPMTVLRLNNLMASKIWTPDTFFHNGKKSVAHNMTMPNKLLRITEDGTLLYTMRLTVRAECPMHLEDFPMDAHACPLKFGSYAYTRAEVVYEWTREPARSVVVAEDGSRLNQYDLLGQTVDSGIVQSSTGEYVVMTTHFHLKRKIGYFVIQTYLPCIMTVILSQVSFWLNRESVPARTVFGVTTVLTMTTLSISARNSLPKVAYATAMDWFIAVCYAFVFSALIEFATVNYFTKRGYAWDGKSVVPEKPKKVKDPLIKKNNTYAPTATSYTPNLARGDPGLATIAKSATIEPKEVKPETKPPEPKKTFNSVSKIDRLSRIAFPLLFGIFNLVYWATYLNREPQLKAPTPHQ
T1 sequence (P47870 25-512 limits assumed): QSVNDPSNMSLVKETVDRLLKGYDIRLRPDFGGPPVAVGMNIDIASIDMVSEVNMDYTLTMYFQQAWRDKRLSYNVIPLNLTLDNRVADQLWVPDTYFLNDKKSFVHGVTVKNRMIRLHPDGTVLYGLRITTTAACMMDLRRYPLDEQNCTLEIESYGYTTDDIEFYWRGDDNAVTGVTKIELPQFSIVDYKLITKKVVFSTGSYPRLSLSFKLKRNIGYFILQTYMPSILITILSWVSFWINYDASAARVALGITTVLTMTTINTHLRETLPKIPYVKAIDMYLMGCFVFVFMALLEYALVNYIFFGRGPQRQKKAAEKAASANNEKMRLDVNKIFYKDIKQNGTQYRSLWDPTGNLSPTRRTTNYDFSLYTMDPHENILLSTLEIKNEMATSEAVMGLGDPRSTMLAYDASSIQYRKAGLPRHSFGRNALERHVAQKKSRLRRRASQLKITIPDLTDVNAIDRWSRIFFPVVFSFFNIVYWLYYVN
T1 sequence (P18507 40-475 partner): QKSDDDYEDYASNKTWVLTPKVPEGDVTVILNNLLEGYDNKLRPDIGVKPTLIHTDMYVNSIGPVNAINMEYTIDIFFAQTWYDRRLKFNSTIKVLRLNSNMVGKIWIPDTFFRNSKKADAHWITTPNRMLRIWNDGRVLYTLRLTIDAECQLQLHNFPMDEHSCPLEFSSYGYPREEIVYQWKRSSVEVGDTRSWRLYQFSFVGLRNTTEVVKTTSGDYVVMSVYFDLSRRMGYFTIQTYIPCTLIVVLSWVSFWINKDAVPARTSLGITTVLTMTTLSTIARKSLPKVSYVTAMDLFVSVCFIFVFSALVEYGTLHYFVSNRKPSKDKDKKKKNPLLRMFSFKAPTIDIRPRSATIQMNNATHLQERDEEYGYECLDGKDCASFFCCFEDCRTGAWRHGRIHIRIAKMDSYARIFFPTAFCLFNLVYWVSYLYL

For `CC(=O)[C@H]1CC[C@H]2[C@@H]3CC[C@H]4C[C@@H](O)CC[C@]4(C)[C@H]3CC[C@]12C` [UC1010, 3beta-hydroxy-5alpha-pregnan-20-one], which “Symptoms at diestrus during treatment in comparison to mean diestrus without treatment” value (female Wistar rats; 14 rats with symptoms) is on record?
Its value is “significantly decreased”.

And the “Relative effect of treatment on symptomatic behavior at diestrus” value (female Wistar rats; baseline diestrus set to 100%, baseline estrus set to 0%, n=14)?
Its value is −89%.

What about the “Estrus cycle duration or vaginal smear appearance during treatment” value (female Wistar rats; data not shown) of the same molecule?
Its value is “did not change”.

And the “Symptomatic behaviors at both diestrus phases when treated compared to diestrus at baseline” value (female Wistar rats; nine rats with symptoms in both cycles)?
The value was “less frequent”.

What about the “Effect size, Cohen's d” value (female Wistar rats; symptoms at diestrus) of the same molecule?
Its value is 1.67.

And the “Safety in clinical studies” value [1]?
The value was “shown safe”.

And the “Imax/Emax Mean ± SEM %, antagonism of THDOC enhanced effect” value ([2]; 1 μM UC1010 + 30 μM GABA + 200 nM THDOC)?
The value was −22.3±5.3%.

What about the “Imax/Emax Mean ± SEM %, effect on GABA response” value ([2]; 1 μM UC1010 + 30 μM GABA, compared to GABA alone) of the same molecule?
Its value is “+10.3 ± 7.8%”.

And the Emax ([2]; HEK293, 0.1-1 μM UC1010 + 30 μM GABA + 200 nM THDOC, concentration-dependent experiment, read-out: Imax/Emax, max antagonism of THDOC effect)?
The Emax was -21 ± 4.6%.

And the Emax at 1 µM ([2]; HEK293, read-out: Imax/Emax Mean ± SEM %, effect on GABA response, 1 μM UC1010 + 30 μM GABA, compared to GABA alone)?
The Emax at 1 µM was 10.3%.

What about the “The effect of 1 μM UC1010 on 8 μM Androstanediol + 30 μM GABA, Mean ± SEM %” value ([2]; steady state (phasic effect)) of the same molecule?
The value was −30 ± 1.7%.

What about the “The effect of 1 μM UC1010 on 8 μM Androstanediol, baseline shift, Mean ± SEM %” value ([2]; tonic effect) of the same molecule?
Its value is −33 ± 7.6%.

What about the “The effect of 1 μM UC1010 on 0.6 μM Androstanediol + 3 μM GABA, Mean ± SEM %” value [3] of the same molecule?
The value was −18 ± 2.0%.

What about the “The effect of 1 μM UC1010 on 0.8 μM Androstanediol + 3 μM GABA, Mean ± SEM %” value [3] of the same molecule?
The value was −22 ± 2.6%.

What about the “Current response of compound by itself” value ([3]; 1 μM, no GABA, no THDOC) of the same molecule?
The value was −0.4±0.3 pA.

What about the “The effect of 1 μM UC1010 on 0.1 μM THDOC alone baseline, Mean ± SEM %” value ([3]; baseline shift without GABA) of the same molecule?
Its value is −43 ± 3.5%.

What about the “The effect of 1 μM UC1010 on 3 μM GABA response, Mean ± SEM %” value ([3]; control, GABA alone) of the same molecule?
The value was −6.7 ± 3.3%.

And the “The effect of 1 μM UC1010 on 0.1 μM THDOC + 3 μM GABA, Mean ± SEM %” value ([3]; steady state)?
Its value is −26 ± 2.4%.
